Where two headings read alike, the source gives them in different places. Where a SMILES comes first, the peptide text is derived from it.

The text below walks through data of article PMC8954214, “Preparation, Identification, Molecular Docking Study and Protective Function on HUVECs of Novel ACE Inhibitory Peptides from Protein Hydrolysate of Skipjack Tuna Muscle” (Marine Drugs, 2022).

Experiment [1] has as its system HUVECs. The experiment can be described thus: ET-1 secretion of HUVECs. The class given is cell-based, human. As to conditions: 24 h; for ET-1 secretion: control 118.68 ± 0.53. From the text:
Skipjack tuna (K. pelamis) muscle was provided by Ningbo Today Food Co., Ltd (China). Sephadex G-25 resins and NO assay kit (Nitrate reductase approach, A012-1) were purchased from Nanjing Jiancheng Bioengineering Institute (China). ET-1 ELISA Kit (HM10108) was purchased from Shanghai Qiaodu Biotechnology Co. Ltd. (China).Trypsase (≥20,000 U/g), pepsase (≥500,000 U/g), papain (≥400,000 U/g), ACE (A6778) and N-[3-(2-Furyl) acryloyl]-Phe-Gly-Gly (FAPGG, F713) were purchased from Sigma-Aldrich (Shanghai) Trading Co., Ltd. (China). […] ACEi Peptides of (TMAP1-TMAP6) with purity higher than 98% were synthesized in Shanghai Apeptide Co. Ltd. (China).
The NO and ET-1 contents of HUVECs were determined after a 24 h treatment of ACEi peptides. […] NO and ET-1 production in treated cells were measured by employing human NO and ET-1 assay kit as manufactures’ protocol, separately.

The subject of experiment [2] is HUVECs. The experiment can be described thus: NO production in HUVECs. The conditions noted are these: 24 h; for NO level: control 34.41 ± 1.27. The experiment is classed as cell-based, human.
Experiment [3] has as its target T1, ACE (Oryctolagus cuniculus, UniProt P12822).
T1 construct: purchased Sigma-Aldrich (Shanghai) Trading Co., Ltd. A6778
T1 sequence (P12822 34-1310): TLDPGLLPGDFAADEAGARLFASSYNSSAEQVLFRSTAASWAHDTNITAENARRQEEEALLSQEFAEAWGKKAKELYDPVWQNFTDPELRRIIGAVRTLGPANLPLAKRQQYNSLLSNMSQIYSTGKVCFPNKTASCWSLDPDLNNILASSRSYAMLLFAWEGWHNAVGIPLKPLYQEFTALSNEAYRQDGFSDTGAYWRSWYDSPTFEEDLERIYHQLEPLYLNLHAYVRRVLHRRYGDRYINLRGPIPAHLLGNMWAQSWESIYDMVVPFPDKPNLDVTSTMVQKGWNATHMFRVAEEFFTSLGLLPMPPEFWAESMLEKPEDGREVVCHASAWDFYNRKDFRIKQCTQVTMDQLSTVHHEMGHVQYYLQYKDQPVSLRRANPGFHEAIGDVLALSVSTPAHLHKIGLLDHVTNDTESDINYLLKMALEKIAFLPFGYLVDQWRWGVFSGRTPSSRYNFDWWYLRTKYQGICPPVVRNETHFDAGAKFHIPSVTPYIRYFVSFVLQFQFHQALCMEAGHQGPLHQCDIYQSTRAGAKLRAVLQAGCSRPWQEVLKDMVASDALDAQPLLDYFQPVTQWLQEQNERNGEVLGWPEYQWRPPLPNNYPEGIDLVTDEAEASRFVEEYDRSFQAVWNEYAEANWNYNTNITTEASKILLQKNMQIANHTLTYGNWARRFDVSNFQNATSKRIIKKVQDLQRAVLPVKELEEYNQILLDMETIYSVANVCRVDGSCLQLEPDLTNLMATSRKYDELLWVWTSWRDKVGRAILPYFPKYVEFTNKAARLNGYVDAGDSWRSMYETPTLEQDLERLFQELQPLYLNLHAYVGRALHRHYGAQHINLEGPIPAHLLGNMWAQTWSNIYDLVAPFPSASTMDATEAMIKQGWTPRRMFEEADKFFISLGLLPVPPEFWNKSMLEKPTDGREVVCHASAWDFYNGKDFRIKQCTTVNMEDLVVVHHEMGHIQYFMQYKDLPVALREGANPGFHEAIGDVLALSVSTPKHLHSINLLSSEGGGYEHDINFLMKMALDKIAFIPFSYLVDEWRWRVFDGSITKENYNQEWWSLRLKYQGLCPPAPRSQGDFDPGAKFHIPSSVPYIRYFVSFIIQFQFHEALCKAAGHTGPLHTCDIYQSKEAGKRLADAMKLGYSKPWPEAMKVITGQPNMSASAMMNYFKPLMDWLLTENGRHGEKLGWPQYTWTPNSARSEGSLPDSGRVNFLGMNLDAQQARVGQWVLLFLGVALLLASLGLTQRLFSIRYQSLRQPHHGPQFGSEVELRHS
The arrangement: method as in 3 sources, ref 47 = [47]; doi:10.1016/j.lwt.2016.08.047; 47. Wang X. Chen H. Fu X. Li S. Wei J. A novel antioxidant and ACE inhibitory peptide from rice bran protein: Biochemical characterization and molecular docking study LWT-Food Sci.Technol. 2017 75 93 ||| ref 12 = [12]; PMID 31353484; doi:10.1111/jfbc.12572; 12. Fan H. Liao W. Wu J. Molecular interactions, bioavailability, and cellular mechanisms of angiotensin-converting enzyme inhibitory peptides J. Food Biochem. 2019 43 e12572 10.1111/jfbc.12572 313534 ||| ref 51 = [51]; PMID 28873590; doi:10.1016/j.foodchem.2017.06.112; 51. Abdelhedi O. Nasri R. Mora L. Jridi M. Toldra F. Nasri M. In silico analysis and molecular docking study of angiotensin I-converting enzyme inhibitory peptides from smooth-hound viscera protein hy. The conditions noted are these: docking; cited from earlier work.

The target of experiment [4] is T1, ACE. As to conditions: cited from earlier work. The source says: Among these peptides, ACEi peptides represent a promising alternative to synthetic drugs to control hypertension. For instance, canary seed peptides (CSP) have great potential as anti-hypertensive and anti-obesity agents due to their inhibition activity on ACE and pancreatic lipase, and their non-competitive inhibitory activity was due to their destabilization of the transition state and Zn(II) coordination in ACE [13]. […] Auwal et al. illustrated that branched aliphatic or dicarboxylic amino acids (Val, Ala, Ile, and Leu) at the N-terminus could strengthen ACEi ability of peptides. Then, Val residue at the N-terminus of TMAP2 could improve its ACEi ability. […] Therefore, Ser residue, especially its hydroxyl group, should play a vital effect in the ACEi capability of ...

Experiment [5] has as its target T2, angiotensin-I-converting enzyme (ACE) (UniProt P12822).
T2 sequence: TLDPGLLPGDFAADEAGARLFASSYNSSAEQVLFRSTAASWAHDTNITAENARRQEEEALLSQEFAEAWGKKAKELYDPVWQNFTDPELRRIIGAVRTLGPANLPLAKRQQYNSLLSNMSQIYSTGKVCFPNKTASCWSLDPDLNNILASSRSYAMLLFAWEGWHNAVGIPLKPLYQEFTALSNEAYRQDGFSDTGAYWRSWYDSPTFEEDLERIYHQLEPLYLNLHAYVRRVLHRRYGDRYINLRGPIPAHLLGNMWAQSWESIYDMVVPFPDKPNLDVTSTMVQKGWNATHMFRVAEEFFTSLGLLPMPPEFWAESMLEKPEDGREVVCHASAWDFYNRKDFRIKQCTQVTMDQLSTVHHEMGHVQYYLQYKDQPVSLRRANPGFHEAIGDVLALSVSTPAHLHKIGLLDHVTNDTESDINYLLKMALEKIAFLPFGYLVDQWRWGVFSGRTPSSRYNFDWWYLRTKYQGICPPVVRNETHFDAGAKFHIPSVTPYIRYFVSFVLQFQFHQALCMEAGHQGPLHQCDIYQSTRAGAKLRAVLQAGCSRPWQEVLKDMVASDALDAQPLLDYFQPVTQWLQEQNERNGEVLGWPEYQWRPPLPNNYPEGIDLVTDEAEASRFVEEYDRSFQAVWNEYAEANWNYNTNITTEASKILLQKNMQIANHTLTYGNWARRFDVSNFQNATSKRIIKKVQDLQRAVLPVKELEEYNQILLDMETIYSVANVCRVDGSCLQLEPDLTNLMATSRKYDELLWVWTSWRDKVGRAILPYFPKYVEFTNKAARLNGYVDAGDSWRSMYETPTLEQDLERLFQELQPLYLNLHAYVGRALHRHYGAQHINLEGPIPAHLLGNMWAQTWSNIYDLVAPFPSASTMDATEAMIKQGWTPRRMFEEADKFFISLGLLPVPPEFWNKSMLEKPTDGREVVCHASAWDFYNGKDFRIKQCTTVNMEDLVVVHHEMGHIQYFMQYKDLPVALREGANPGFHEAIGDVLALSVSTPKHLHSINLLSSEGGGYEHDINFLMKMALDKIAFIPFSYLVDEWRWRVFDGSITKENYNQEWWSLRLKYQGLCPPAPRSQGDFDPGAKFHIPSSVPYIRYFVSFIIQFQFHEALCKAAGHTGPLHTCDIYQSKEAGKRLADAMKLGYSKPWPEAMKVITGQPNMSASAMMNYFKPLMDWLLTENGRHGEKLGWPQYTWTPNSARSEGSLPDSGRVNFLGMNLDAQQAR

`NC[C@H](O)c1ccc(O)c(O)c1` [NE, norepinephrine] showed an ET-1 secretion with HUVECs [1] (NE 0.5 μM, p < 0.01) of 140.23 ± 5.81 pg/mL. The NO level in the experiment on HUVECs [2] (NE 0.5 μM, p < 0.001) is on record as 24.25 ± 0.63 μmol/gprot. Take “TTMYPGIA [larger peptide composed of 7–11 amino acid residues]”: the “interaction with ACE channel / active site” value at ACE [3] is on record as “showed low interaction scores”. The IC50 is the concentration at which inhibition is half-maximal. With SPRCR [ACEi peptide with Ser residue], the IC50 with ACE [4] was 41 µM. Take “AVVPPSDKM [larger peptide composed of 7–11 amino acid residues]”: on ACE [3], the “interaction with ACE channel / active site” value is recorded as “showed low interaction scores”. For `C[C@H](CS)C(=O)N1CCC[C@H]1C(=O)O` [Cap, captopril], the ET-1 secretion in the experiment with HUVECs [1] (0.5 μM Cap, p < 0.001) turned out to be 84.16 ± 1.18 pg/mL. In addition, the NO level in the experiment on HUVECs [2] (Cap positive control (1 μM per method), p < 0.001) is 65.96 ± 1.83 μmol/gprot.

On to EVLIQ [ACEi peptide from stone fish], for which, in the experiment with ACE [4] (stone fish peptides), the IC50 was 1440 µM. Turning to Ser-Pro (SP) (peptide), in experiment [5], the IC50 of ACE inhibitory (ACEi) activity; enzyme assay with FAPGG as substrate, Tris-HCl 50 mM pH 8.3, 300 mM NaCl, 37 °C, product measured by HPLC worked out at 0.06 mg/mL. For VSQLTR [ACEi peptide with Ser residue], the concentration for half-maximal inhibition (IC50) in the experiment with ACE [4] was 105 µM. As for “AGPPGSDGQPGA [ACEi peptide from lizardfish]”, the IC50 with ACE [4] (lizardfish peptide) was 544 µg/mL. As for LAPPTM [ACEi peptide from stone fish], the IC50 with ACE [4] (stone fish peptides) was 1310 µM. As for LGPLGHQ [ACEi peptide from skate], the IC50 with ACE [4] (skate peptides) is 4.22 µM. In the case of “HWTTQR [ACEi peptide from seaweed pipefish]”, the IC50 with ACE [4] (seaweed pipefish peptide) was 1440 µM. On to Tyr-Glu (YE) (peptide), for which, in experiment [5], the IC50 of ACE inhibitory (ACEi) activity; enzyme assay with FAPGG as substrate, Tris-HCl 50 mM pH 8.3, 300 mM NaCl, 37 °C, product measured by HPLC was found to be 0.8 mg/mL. Turning to “GPAGPRGPAG [larger peptide composed of 7–11 amino acid residues]”, the “interaction with ACE channel / active site” value at ACE [3] is “showed low interaction scores”. Regarding EHPVL [ACEi peptide from stone fish], at ACE [4] (stone fish peptides), the IC50 was 1680 µM. In experiment [5], Phe-Glu-Met (FEM) (peptide) showed an IC50 of ACE inhibitory (ACEi) activity; enzyme assay with FAPGG as substrate, Tris-HCl 50 mM pH 8.3, 300 mM NaCl, 37 °C, product measured by HPLC of 2.18 mg/mL. In the case of `N[C@@H](CO)C(=O)N1CCC[C@H]1C(=O)O` [TMAP1, Ser-Pro] (H-Ser-Pro-OH), the “ET-1 secretion with NE” value in the experiment on HUVECs [1] (200 μM peptide with NE (0.5 μM), NE alone 140.23 ± 5.81, p < 0.01) is 114.08 ± 5.82 pg/mL. Also, the ET-1 secretion with HUVECs [1] (400 μM) is on record as 94.86 ± 0.39 pg/mL. In addition, in the experiment with HUVECs [1] (tested concentrations (100–400 μM), p < 0.001 or p < 0.01), the “ET-1 secretion vs control group” value is “decreased”. In addition, in the experiment on HUVECs [2] (200 μM peptide with NE (0.5 μM), p < 0.001 vs NE), the “reversal of NE-reduced NO content” value is reported as “partially offset”. In the experiment with HUVECs [2] (400 μM, p < 0.001), this molecule showed an NO level of 57.25 ± 2.31 μmol/gprot. In the experiment on HUVECs [2] (100, 200 and 400 μM, p < 0.001), the “NO level vs control group” value is recorded as “significantly increased”. For the molecule “ALPMHIR [larger peptide composed of 7–11 amino acid residues]”, the “interaction with ACE channel / active site” value at ACE [3] is reported as “showed low interaction scores”. For the molecule “VKPLPQSG [larger peptide composed of 7–11 amino acid residues]”, the “interaction with ACE channel / active site” value at ACE [3] is “showed low interaction scores”. As to MVGSAPGVL [ACEi peptide from skate], the IC50 with ACE [4] (skate peptides) was 3.09 µM. In experiment [5], VDRYF [Val-Asp-Arg-Tyr-Phe (VDRYF)] gave an IC50 of ACE inhibitory (ACEi) activity; enzyme assay with FAPGG as substrate, Tris-HCl 50 mM pH 8.3, 300 mM NaCl, 37 °C, product measured by HPLC of 0.28 mg/mL. The same measure, in the same setting: the figure for VHGVV [Val-His-Gly-Val-Val (VHGVV)] is 0.9 mg/mL. Molecule FWRV [Phe-Trp-Arg-Val (FWRV)] displayed an IC50 of ACE inhibitory (ACEi) activity; enzyme assay with FAPGG as substrate, Tris-HCl 50 mM pH 8.3, 300 mM NaCl, 37 °C, product measured by HPLC in experiment [5] of 0.76 mg/mL.
